Reference: the supplement of paper PMC10307832

Tests used:
Test in all cases: relative viability (nuclei count vs DMSO), 5 days (fraction); higher = more cells survive
Gemcitabine + Tozasertib = compound: Nc1ccn([C@@H]2O[C@H](CO)[C@@H](O)C2(F)F)c(=O)n1 [Gemcitabine] + Cc1cc(Nc2cc(N3CCN(C)CC3)nc(Sc3ccc(NC(=O)C4CC4)cc3)n2)n[nH]1 [Tozasertib] (partner 0.1 µM)
Procedure, shortened: (§1)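 Relative viability equals treated-well nuclei counts divided by vehicle-well nuclei counts. Counts came from 4× images of lung cancer cell lines grown in 1536-well plates for 5 days after pin-tool dosing on the day after seeding. Dosing used one drug alone or a fixed anchor-drug dose plus five library-drug doses (not always all listed) in √10 steps, and values are medians of duplicate plates.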

Gemcitabine + Crizotinib = compound: Nc1ccn([C@@H]2O[C@H](CO)[C@@H](O)C2(F)F)c(=O)n1 [Gemcitabine] + C[C@@H](Oc1cc(-c2cnn(C3CCNCC3)c2)cnc1N)c1c(Cl)ccc(F)c1Cl [Crizotinib] (partner 1 µM)
Procedure, shortened: as §1

Gemcitabine + Decitabine = compound: Nc1ccn([C@@H]2O[C@H](CO)[C@@H](O)C2(F)F)c(=O)n1 [Gemcitabine] + Nc1ncn([C@H]2C[C@H](O)[C@@H](CO)O2)c(=O)n1 [Decitabine] (partner 2 µM)
Procedure, shortened: as §1

Gemcitabine + Lapatinib = compound: Nc1ccn([C@@H]2O[C@H](CO)[C@@H](O)C2(F)F)c(=O)n1 [Gemcitabine] + CS(=O)(=O)CCNCc1ccc(-c2ccc3ncnc(Nc4ccc(OCc5cccc(F)c5)c(Cl)c4)c3c2)o1 [Lapatinib] (partner 2 µM)
Procedure, shortened: as §1

Cell Line	relative viability (Gemcitabine + Tozasertib; first compound 0.001 µM)	relative viability (Gemcitabine + Tozasertib; first compound 0.003162 µM)	relative viability (Gemcitabine + Tozasertib; first compound 0.01 µM)	relative viability (Gemcitabine + Tozasertib; first compound 0.03162 µM)	relative viability (Gemcitabine + Tozasertib; first compound 0.1 µM)	relative viability (Gemcitabine + Crizotinib; first compound 0.001 µM)	relative viability (Gemcitabine + Crizotinib; first compound 0.01 µM)	relative viability (Gemcitabine + Crizotinib; first compound 0.03162 µM)	relative viability (Gemcitabine + Crizotinib; first compound 0.1 µM)	relative viability (Gemcitabine + Decitabine; first compound 0.001 µM)	relative viability (Gemcitabine + Decitabine; first compound 0.003162 µM)	relative viability (Gemcitabine + Decitabine; first compound 0.01 µM)	relative viability (Gemcitabine + Decitabine; first compound 0.03162 µM)	relative viability (Gemcitabine + Decitabine; first compound 0.1 µM)	relative viability (Gemcitabine + Lapatinib; first compound 0.001 µM)	relative viability (Gemcitabine + Lapatinib; first compound 0.003162 µM)	relative viability (Gemcitabine + Lapatinib; first compound 0.01 µM)	relative viability (Gemcitabine + Lapatinib; first compound 0.03162 µM)	relative viability (Gemcitabine + Lapatinib; first compound 0.1 µM)	relative viability (Gemcitabine + Crizotinib; first compound 0.003162 µM)
LC-2-ad	0.497	0.407	0.379	0.191	0.2	0.471	0.427	0.162	0.109	0.797	0.863	0.729	0.658	0.469	0.978	0.917	0.82	0.188	0.111	
LCLC-97TM1	0.253	0.244	0.156	0.123	0.134	0.297	0.0935	0.0797	0.12	0.235	0.206	0.143	0.104	0.0854	0.829	0.683	0.178	0.0781	0.0994	0.179
LK-2	0.162	0.157	0.21	0.183	0.165	0.285	0.255	0.238	0.225	0.242	0.23	0.204	0.109	0.128	0.977	0.692	0.817	0.329	0.249	
LOU-NH91	0.699	0.578	0.415	0.211	0.146	0.715	0.451	0.286	0.271	0.801	0.732	0.756	0.562	0.41	0.733	0.72	0.479	0.267	0.276	0.594
LU99A	0.26	0.322	0.294	0.327	0.265	0.577	0.567	0.567	0.562	0.789	1.03	0.816	0.985	0.836	1.15	1.16	0.932	0.974	1	0.648
LXF-289	0.254	0.199	0.111	0.0735	0.0697	0.786	0.562	0.127	0.112	0.396	0.372	0.321	0.222	0.151	0.922	0.921	0.783	0.282	0.141	0.783
NCI-H23	0.688	0.225	0.114	0.129	0.114	0.297	0.12	0.131	0.152	0.284	0.237	0.155	0.157	0.136	0.794	0.601	0.14	0.159	0.109	0.206
NCI-H322M	0.459	0.407	0.288	0.316	0.283	0.85	0.269	0.219	0.212	0.607	0.445	0.41	0.457	0.388	0.61	0.362	0.239	0.227	0.217	0.357
NCI-H358	0.086	0.081	0.0836	0.081	0.0743	0.494	0.188	0.166	0.135	0.188	0.171	0.151	0.102	0.105	0.436	0.398	0.203	0.212	0.156	0.228
NCI-H460	0.535		0.299	0.0246	0.0096	1.12	0.528	0.0182	0.0089	0.475	0.451	0.417	0.0447	0.0204	1.05	1.11	0.278	0.0125	0.009	0.894
NCI-H520	0.422	0.446	0.316	0.208	0.239	0.915	0.465	0.156	0.108	0.525	0.48	0.289	0.189	0.198	0.901	1.11	0.474	0.186	0.121	0.769
NCI-H596	0.922	0.589	0.391	0.306	0.223	1.04	0.531	0.391	0.345	1.15	0.973	0.763	0.449	0.466	1.01	1.07	0.739	0.424	0.373	1.02
NCI-H647	0.395	0.098	0.0474	0.0387	0.0371	1.09	0.0721	0.0642	0.0615	0.308	0.257	0.151	0.104	0.0673	0.742	0.28	0.0986	0.0734	0.0451	0.195
NCI-H650	0.676	0.384	0.193	0.143	0.15	0.578	0.176	0.177	0.167	0.243	0.237	0.164	0.175	0.153	0.606	0.269	0.299	0.149	0.161	0.322
NCI-H661	0.367	0.366	0.338	0.263	0.219	1.09	0.856	0.333	0.285	0.569	0.582	0.465	0.346	0.237	0.618	0.47	0.287	0.216	0.171	0.983
NCI-H727	0.571	0.443	0.352	0.431	0.321	0.771	0.243	0.266	0.219	0.846	0.477	0.569	0.451	0.47	0.843	0.561	0.262	0.239	0.281	0.32

Cell Line	relative viability (Gemcitabine + Tozasertib; first compound 0.001 µM)	relative viability (Gemcitabine + Tozasertib; first compound 0.003162 µM)	relative viability (Gemcitabine + Tozasertib; first compound 0.01 µM)	relative viability (Gemcitabine + Tozasertib; first compound 0.03162 µM)	relative viability (Gemcitabine + Tozasertib; first compound 0.1 µM)	relative viability (Gemcitabine + Crizotinib; first compound 0.001 µM)	relative viability (Gemcitabine + Crizotinib; first compound 0.01 µM)	relative viability (Gemcitabine + Crizotinib; first compound 0.03162 µM)	relative viability (Gemcitabine + Crizotinib; first compound 0.1 µM)	relative viability (Gemcitabine + Decitabine; first compound 0.001 µM)	relative viability (Gemcitabine + Decitabine; first compound 0.003162 µM)	relative viability (Gemcitabine + Decitabine; first compound 0.01 µM)	relative viability (Gemcitabine + Decitabine; first compound 0.03162 µM)	relative viability (Gemcitabine + Decitabine; first compound 0.1 µM)	relative viability (Gemcitabine + Lapatinib; first compound 0.001 µM)	relative viability (Gemcitabine + Lapatinib; first compound 0.003162 µM)	relative viability (Gemcitabine + Lapatinib; first compound 0.01 µM)	relative viability (Gemcitabine + Lapatinib; first compound 0.03162 µM)	relative viability (Gemcitabine + Lapatinib; first compound 0.1 µM)	relative viability (Gemcitabine + Crizotinib; first compound 0.003162 µM)
NCI-H838	0.283	0.277	0.263	0.164	0.121	0.912	0.858	0.324	0.139	0.442	0.485	0.365	0.281	0.187	1.02	1.22	0.923	0.282	0.103	0.981
NCI-H1355	0.508	0.393	0.189	0.18	0.169	0.996	0.193	0.158	0.141	0.338	0.294	0.25	0.198	0.191	0.884	0.825	0.304	0.153	0.153	0.706
NCI-H1437	0.447	0.418	0.347	0.297	0.156	1.07	0.617	0.162	0.121	0.572	0.553	0.515	0.364	0.269	0.828	0.737	0.402	0.157	0.0977	0.863
NCI-H1650	0.507	0.348	0.273	0.119	0.113	0.974	0.638	0.158	0.145	0.467	0.369	0.239	0.222	0.155	0.669	0.706	0.406	0.179	0.17	0.875
NCI-H1651	0.621	0.683	0.693	0.177	0.0714	0.913	0.85	0.346	0.138	0.639	0.406	0.596	0.509	0.172	0.863	1	0.678	0.165	0.0838	0.855
NCI-H1666	0.622	0.615	0.582	0.387	0.337	0.959	0.596	0.321	0.268	0.686	0.55	0.712	0.538	0.447	0.617	0.708	0.512	0.265	0.239	1.16
NCI-H1734	0.243	0.264	0.125	0.104	0.105	0.8	0.246	0.106	0.104	0.536	0.343	0.192	0.134	0.102	0.985	0.97	0.421	0.165	0.0939	0.48
NCI-H1755	0.594	0.564	0.411	0.321	0.252	0.92	0.681	0.268	0.218	0.708	0.667	0.65	0.568	0.469	0.962	1.04	0.959	0.35	0.265	0.845
NCI-H1915	0.461	0.462	0.397	0.317	0.193	0.967	0.881	0.426	0.247	0.255	0.262	0.254	0.258	0.182	0.938	0.877	0.949	0.925	0.597	0.87
NCI-H1944	0.253	0.266	0.251	0.188	0.105	1.28	0.953	0.304	0.141	0.44	0.409	0.443	0.381	0.193	0.848	0.847	0.804	0.45	0.24	1.02
NCI-H1975	0.892	0.561	0.256	0.132	0.0954	0.996	0.48	0.201	0.16	0.307	0.373	0.387	0.197	0.167	0.983	1.1	0.725	0.245	0.179	1.01
NCI-H1993	0.54	0.633	0.619	0.494	0.531	0.89	0.668	0.549	0.461	0.549	0.524	0.564	0.44	0.356	0.77	0.769	0.853	0.546	0.495	0.891
NCI-H2009	0.854	0.65	0.24	0.163	0.11	1.18	0.227	0.102	0.0943	0.363	0.264	0.233	0.141	0.114	0.929	0.624	0.205	0.129	0.192	0.841
NCI-H2023	0.409	0.385	0.233	0.101	0.0648	0.702	0.504	0.095	0.0687	0.224	0.217	0.126	0.0929	0.0689	1.04	0.99	0.424	0.127	0.0738	0.633
NCI-H2085	0.729	0.858	0.731	0.562	0.443	0.74	0.699	0.585	0.4	0.583	0.507	0.486	0.425	0.428	0.811	0.811	0.668	0.434	0.302	0.828
NCI-H2087	0.31	0.204	0.139	0.0946	0.0735	0.963	0.405	0.133	0.161	0.283	0.307	0.179	0.086	0.0869	0.9	0.814	0.396	0.17	0.161	0.8
